The values below are quoted from earlier work in patent US20040248901A1, “Compositions containing itraconazole and their preparation methods” (priority 2001, published 2004).

The conditions of this data set: background art.

With `CCC(C)n1ncn(-c2ccc(N3CCN(c4ccc(OCC5COC(Cn6cncn6)(c6ccc(Cl)cc6Cl)O5)cc4)CC3)cc2)c1=O` (mixture of isomers) [itraconazole, (±)-cis-4-[4-[4-[4-[[2-(2,4-dichlorophenyl)-2-(1H-1,2,4-triazol-1-ylmethyloxolan-4-yl]methoxy]phenyl]-1-piperazinyl]phenyl]-2,4-dihydro-2-(1-methylpropyl)-3H-1,2,4-triazol-3-one], the solubility in water was no more than 1 µg/mL.
